From ChEMBL document CHEMBL1201862, “PubChem BioAssay data set” (2004)
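Five compound concentrations were applied to cells in 96-well plates for 48 hours; endpoints were derived by simple linear interpolation of the resulting dose-response curve. Here, GI50 denotes the concentration required for 50% inhibition of growth.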 Activity calls are given as the source filed them. Cut-off read from the data, not from the text of the source: active = GI50 up to about 1.1 µM and inactive = higher.

Tests used:
Test in all cases: DTP human tumour cell line panel, 48 h
HOP-62 = test system: HOP-62
BT-549 = test system: BT-549
SF-268 = test system: SF-268
SK-MEL-28 = test system: SK-MEL-28
NCI-H23 = test system: NCI-H23
UACC-257 = test system: UACC-257
OVCAR-8 = test system: OVCAR-8
MDA-MB-231 = test system: MDA-MB-231
MDA-N = test system: MDA-N
NCI-H522 = test system: NCI-H522
UACC-62 = test system: UACC-62
Malme-3M = test system: Malme-3M
HL-60 = test system: HL-60
T47D = test system: T47D
A549 = test system: A549
U-251 = test system: U-251
NCI-H226 = test system: NCI-H226
HCT-116 = test system: HCT-116
SNB-75 = test system: SNB-75
HOP-92 = test system: HOP-92

SMILES	GI50 (HOP-62)	GI50 (BT-549)	GI50 (SF-268)	GI50 (SK-MEL-28)	GI50 (NCI-H23)	GI50 (UACC-257)	GI50 (OVCAR-8)	GI50 (MDA-MB-231)	GI50 (MDA-N)	GI50 (NCI-H522)	GI50 (UACC-62)	GI50 (Malme-3M)	GI50 (HL-60)	GI50 (T47D)	GI50 (A549)	GI50 (U-251)	GI50 (NCI-H226)	GI50 (HCT-116)	GI50 (SNB-75)	GI50 (HOP-92)
CC(=O)Nc1ccc2nc(-c3cccc(F)c3)cc(O)c2c1	3.15 µM (inactive)	4.04 µM (inactive)	28.1 µM (inactive)	> 23.7 µM (inactive)	16.6 µM (inactive)	> 100 µM (inactive)	13.4 µM (inactive)	14.4 µM (inactive)	2.28 µM (inactive)	1.95 µM (inactive)	3.01 µM (inactive)	4 µM (inactive)	5.06 µM (inactive)	> 100 µM (inactive)	59.4 µM (inactive)	2.67 µM (inactive)				
O=C(O)c1ccccc1Sc1ccc(C=C2NC(=S)N(c3ccccc3)C2=O)s1	> 100 µM (inactive)	> 100 µM (inactive)	> 100 µM (inactive)	> 100 µM (inactive)	> 100 µM (inactive)	> 100 µM (inactive)	> 100 µM (inactive)	> 100 µM (inactive)	> 100 µM (inactive)	21.4 µM (inactive)	> 100 µM (inactive)	> 100 µM (inactive)	25.2 µM (inactive)	77.6 µM (inactive)		> 100 µM (inactive)	> 100 µM (inactive)	72.8 µM (inactive)	> 100 µM (inactive)	
CC(=O)OC12c3ccccc3C(c3ccccc31)C1C(=O)N(Nc3ccccc3)C(=O)C12 (centres undefined)	> 100 µM (inactive)	> 100 µM (inactive)	> 100 µM (inactive)	> 100 µM (inactive)	> 100 µM (inactive)	> 100 µM (inactive)	> 100 µM (inactive)	> 100 µM (inactive)	> 100 µM (inactive)		> 10 µM (inactive)	> 100 µM (inactive)	> 100 µM (inactive)	> 100 µM (inactive)	> 100 µM (inactive)	> 100 µM (inactive)	> 100 µM (inactive)	> 100 µM (inactive)	92.7 µM (inactive)	
CCCNC(=S)N/C=C1/C(=O)C=C(C)OC1=O	> 100 µM (inactive)	> 100 µM (inactive)		> 100 µM (inactive)	> 100 µM (inactive)	> 100 µM (inactive)	> 100 µM (inactive)	> 100 µM (inactive)	> 100 µM (inactive)		> 100 µM (inactive)			> 100 µM (inactive)	> 100 µM (inactive)	> 100 µM (inactive)	> 100 µM (inactive)	> 100 µM (inactive)	> 100 µM (inactive)	> 100 µM (inactive)
N#Cc1nc(CCN2C(=O)c3ccccc3C2=O)oc1N	> 100 µM (inactive)	> 100 µM (inactive)	> 100 µM (inactive)	> 100 µM (inactive)	> 100 µM (inactive)	> 100 µM (inactive)	> 100 µM (inactive)	> 100 µM (inactive)	> 100 µM (inactive)	> 100 µM (inactive)		> 100 µM (inactive)		> 100 µM (inactive)	> 100 µM (inactive)	> 100 µM (inactive)	> 100 µM (inactive)	> 100 µM (inactive)	< 0.01 µM (active)	
C=C(CCC=C(C)C)C1CC=C(C)CC1 (centres undefined)	16.3 µM (inactive)	95.7 µM (inactive)	28.8 µM (inactive)		17.7 µM (inactive)	> 100 µM (inactive)	36 µM (inactive)	30.6 µM (inactive)	18.5 µM (inactive)	16.4 µM (inactive)	36.9 µM (inactive)	> 100 µM (inactive)		28.1 µM (inactive)	19.5 µM (inactive)	18 µM (inactive)	> 100 µM (inactive)	19.4 µM (inactive)		
CC(C)=CCC[C@]1(C)CC[C@]2(C)C3CCC(=C(C)C)[C@@H](CCCO)[C@]3(C)CC[C@@]2(C)C1 (some centres undefined)	88.5 µM (inactive)	> 100 µM (inactive)	82 µM (inactive)	> 100 µM (inactive)	84.9 µM (inactive)	24 µM (inactive)	30.5 µM (inactive)	29.8 µM (inactive)	89.3 µM (inactive)	17.8 µM (inactive)	> 100 µM (inactive)	> 100 µM (inactive)	33.8 µM (inactive)	4.92 µM (inactive)	52.6 µM (inactive)	23.6 µM (inactive)	> 100 µM (inactive)	36.7 µM (inactive)	0.0243 µM (active)	
CC1Cc2c(Br)nc(N)nc2NC1=O (centres undefined)	> 100 µM (inactive)	> 100 µM (inactive)	> 100 µM (inactive)	> 100 µM (inactive)	> 100 µM (inactive)	> 100 µM (inactive)	> 100 µM (inactive)	> 100 µM (inactive)	> 100 µM (inactive)	> 100 µM (inactive)	> 100 µM (inactive)	> 100 µM (inactive)		> 100 µM (inactive)	> 100 µM (inactive)	> 100 µM (inactive)	> 100 µM (inactive)	> 100 µM (inactive)	> 100 µM (inactive)	
C=C(CO[Si](C)(C)C(C)(C)C)C(C)=O	> 100 µM (inactive)	20.2 µM (inactive)	31.4 µM (inactive)	17.8 µM (inactive)	26.3 µM (inactive)	18 µM (inactive)	18.8 µM (inactive)	20.3 µM (inactive)	15.3 µM (inactive)	3.78 µM (inactive)	15.7 µM (inactive)	16.6 µM (inactive)	13.8 µM (inactive)	21.6 µM (inactive)	> 100 µM (inactive)	> 63.2 µM (inactive)	> 69.3 µM (inactive)	13.3 µM (inactive)	20 µM (inactive)	
COc1ccc2oc(=N)c(C(=O)Nc3ccccc3)cc2c1	15.8 µM (inactive)	17.7 µM (inactive)	20.6 µM (inactive)	30 µM (inactive)	15.2 µM (inactive)	62.5 µM (inactive)	19.2 µM (inactive)	23.4 µM (inactive)	18.5 µM (inactive)	2.58 µM (inactive)		15.9 µM (inactive)		4.41 µM (inactive)	34.3 µM (inactive)	19.1 µM (inactive)	31.1 µM (inactive)	25.7 µM (inactive)	10.4 µM (inactive)	
CC(C)OC(=O)Nc1cccc(Cl)c1 [CHLORPROPHAM]	> 100 µM (inactive)	87.7 µM (inactive)	> 100 µM (inactive)	> 100 µM (inactive)	> 100 µM (inactive)	> 100 µM (inactive)	> 100 µM (inactive)	> 100 µM (inactive)	> 100 µM (inactive)		> 100 µM (inactive)		> 100 µM (inactive)	50.4 µM (inactive)	> 100 µM (inactive)	87.1 µM (inactive)	> 100 µM (inactive)	> 100 µM (inactive)	40.7 µM (inactive)	> 100 µM (inactive)
O=c1ccc2c(Cl)sc(Cl)c2[nH]1	> 100 µM (inactive)	> 100 µM (inactive)	> 100 µM (inactive)	> 100 µM (inactive)	> 100 µM (inactive)	> 100 µM (inactive)	> 100 µM (inactive)	> 100 µM (inactive)	> 100 µM (inactive)	92.9 µM (inactive)	> 100 µM (inactive)	43.8 µM (inactive)		> 100 µM (inactive)	> 100 µM (inactive)	> 100 µM (inactive)		> 100 µM (inactive)	> 100 µM (inactive)	
